Assay results reported in PMC3335822 (PLoS ONE, 2012).
pIC50: −log10 of the molar value.

Columns and labels:
[1] = system: HUVECs; assay: HUVEC tubulogenesis assay on Matrigel; assay type: cell-based, human; conditions: for effect on tubulogenesis, in words: up to 7.5 μM
Procedure: Tubulogenesis assays were performed in 15-well micro-slide (ibidi LLC, Verona WI), using growth factor-reduced matrigel (BD Bioscience, Billerica, MA). The matrix was prepared by loading 10 μl of matrigel in each micro-slide well and allowing it to solidify for 30 minutes at 37°C. HUVECs were trypsinized and resuspended at 100,000 cell/ml in EBM +2.5% FBS. 50 μl (5,000 cell) were loaded on top of the solidified matrigel and the preparation was incubated for 20 hours at 37°C in a humidified incubator in a 5% CO2 atmosphere. Bright field images were taken using an inverted microscope at 2.5× magnification, which allowed imaging of the whole well in two pictures that were later merged in Photoshop. Tubular structures were traced and counted using NeuroJ (NIH, USA). In experiments with inhibitor, the inhibitor was added to the cell suspension before loading. Each sample was loaded in triplicate, and each treatment was repeated for reproducibility.

[2] = parameters: method as in PMID 20214587; conditions: cited from earlier work
[3] = biological target: T1, human EYA3 (Homo sapiens, UniProt Q99504); assay: pNPP hydrolysis by full-length EYA3; assay type: biochemical
T1 construct: residues 127–573 of NM_001990, isoform 1; His-GST (poly-histidine, glutathione-S-transferase) with TVMV protease site (cleaved yes); made in house
T1 sequence (Q99504 127-573): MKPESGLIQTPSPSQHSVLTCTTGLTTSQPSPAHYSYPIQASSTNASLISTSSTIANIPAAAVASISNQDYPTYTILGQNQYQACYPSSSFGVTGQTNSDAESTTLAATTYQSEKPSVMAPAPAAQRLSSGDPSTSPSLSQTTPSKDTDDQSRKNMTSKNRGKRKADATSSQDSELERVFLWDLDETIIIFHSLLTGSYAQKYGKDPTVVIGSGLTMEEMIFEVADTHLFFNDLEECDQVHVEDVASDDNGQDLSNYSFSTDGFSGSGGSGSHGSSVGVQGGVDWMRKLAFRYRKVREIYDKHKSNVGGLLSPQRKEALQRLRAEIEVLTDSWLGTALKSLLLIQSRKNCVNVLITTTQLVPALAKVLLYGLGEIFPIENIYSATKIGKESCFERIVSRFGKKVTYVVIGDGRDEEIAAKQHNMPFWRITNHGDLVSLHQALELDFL
Text: The catalytic domain (ED) of mouse Eyes Absent 3 (Eya3(223–510)) was purified as described before. Human Eyes Absent 3 isoform 2 (representing the major species identified in human cell lines by mass spectrometry and residues 127–573 of NM_001990, isoform 1) was sub-cloned into pDEST565 to express a poly-histidine- Glutathione-S-transferase (His-GST) tagged fusion protein with a TVMV protease site. The protein was purified by glutathione-S-transferase affinity chromatography followed by TVMV cleavage, Ni-NTA chromatography, and finally size exclusion chromatography. […]
(§1) Compounds were dissolved in DMSO and diluted as needed. […] Reactions were incubated at 30°C for 30 minutes and quenched with 100 mM EDTA pH 10. IC50 values were then calculated directly from regression curves using PRISM. All reported values are the mean of two independent experiments.

[4] = biological target: T2, human EYA2(ED) (Homo sapiens, UniProt O00167); assay: pNPP hydrolysis by the catalytic domain of EYA2; assay type: biochemical; conditions: substrate pNPP
T2 sequence (O00167 267-538 limits assumed): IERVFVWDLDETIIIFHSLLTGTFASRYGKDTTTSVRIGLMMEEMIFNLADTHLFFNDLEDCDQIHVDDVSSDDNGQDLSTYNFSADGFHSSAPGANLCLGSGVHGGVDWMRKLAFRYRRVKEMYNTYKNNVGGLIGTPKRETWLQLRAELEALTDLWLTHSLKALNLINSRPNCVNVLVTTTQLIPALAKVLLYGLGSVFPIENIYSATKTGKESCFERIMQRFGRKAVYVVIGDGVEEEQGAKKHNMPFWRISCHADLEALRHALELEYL
Procedure: The catalytic domain of human Eyes Absent 2 was similarly sub-cloned as a poly-histidine fusion construct in the vector pDEST-527. Fusion protein was purified by Ni-NTA chromatography and followed by size-exclusion chromatography over a Superdex-75 column. The relative purity of protein samples was determined using SDS-PAGE. PTP1B was purified as described previously.
The NCI Diversity Set II was obtained from the NCI in 96-well trays from the NIH Molecular Libraries Program and stored as 10 mM stocks in DMSO. An initial manual screen was conducted using the previously described p-nitrophenylphosphate assay and mouse Eya3(223–510) in a reaction mixture containing 20 mM MES pH 6, 2 mM MgCl2, 125 μM inhibitor, 3.4 mM para-nitrophenol phosphate (pNPP) and 0.01 μg/µL enzyme. The amount of 4-nitrophenol (pNP) produced was monitored at […] on a BioTek EL808 plate reader. A similar protocol was used to screen for inhibitor activity using hEYA3 and hEYA2(ED).
as §1

[5] = biological target: T3, EYA3-SIX2 interaction (Homo sapiens, UniProt Q99504); assay: His-SIX2 Ni-NTA pull-down of EYA3; assay type: binding; conditions: 50 μM, 15 minutes at room temperature
T3 construct: residues 127–573 of NM_001990, isoform 1; His-GST (poly-histidine, glutathione-S-transferase) with TVMV protease site (cleaved yes); made in house
T3 sequence (Q99504 127-573): T1 sequence (Q99504 127-573)
T3 sequence (Q9NPC8 1-291 partner): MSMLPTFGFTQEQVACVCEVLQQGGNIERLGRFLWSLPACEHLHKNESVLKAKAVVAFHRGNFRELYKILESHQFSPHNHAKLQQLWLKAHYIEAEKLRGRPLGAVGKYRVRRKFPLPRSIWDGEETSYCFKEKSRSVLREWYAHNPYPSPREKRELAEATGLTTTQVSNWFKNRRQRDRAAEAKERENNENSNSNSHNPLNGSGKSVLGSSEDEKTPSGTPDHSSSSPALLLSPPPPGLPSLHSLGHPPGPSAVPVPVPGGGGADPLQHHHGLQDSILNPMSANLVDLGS
Text: The catalytic domain of the EYAs also mediates its interaction with the SIX proteins. This complex then translocates to the nucleus where the SIX-EYA complex can activate transcription.

Compound | reduction in tube formation ([1]; 2.5 μM) | effect on tubulogenesis, in words [1] | hepatotoxicity [2] | pIC50 ([3]; full-length human EYA3, substrate pNPP) | pIC50 [4] | effect on the interaction between EYA3 and SIX2 [5] | inhibitory effect in the presence of detergent ([3]; 0.01% Triton X-100)
CCc1oc2ccccc2c1C(=O)c1ccc(O)cc1 [Compound 1a, Benzarone] | ~50% | potently inhibited tubulogenesis in a dose-dependent fashion | reported hepatotoxicity | 4.77 | – | – | –
CCc1oc2ccccc2c1C(=O)c1cc(Br)c(O)c(Br)c1 [Compound 1, Benzbromarone] | – | effective only at the highest concentrations tested (7.5 μM) | reported hepatotoxicity | – | 4.99 | does not affect the interaction between EYA3 and SIX2 | inhibitory effect was retained
